Laboratory results: PubChem BioAssay (NCI)
“And” between values parts separate entries of the source, which are not always exact repeats. Equal values may be shown once.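 Tested at 5 concentrations; 48 h exposure; 96-well plates; endpoints linearly interpolated, else capped at highest concentration. Abbreviation: GI50, concentration required for 50% inhibition of growth. The concentration for full growth arrest is given as TGI.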

Assays:
Test in all cases: inhibition of tumour cell growth, NCI panel, 48 h
CCRF-CEM leukemia = test system: CCRF-CEM leukemia
COLO 205 colon = test system: COLO 205 colon
DU-145 prostate = test system: DU-145 prostate
HCC-2998 colon = test system: HCC-2998 colon
NCI-H460 lung = test system: NCI-H460 lung
OVCAR-4 ovarian = test system: OVCAR-4 ovarian
RPMI-8226 leukemia = test system: RPMI-8226 leukemia
SK-OV-3 ovarian = test system: SK-OV-3 ovarian
SNB-19 CNS = test system: SNB-19 CNS
SW-620 colon = test system: SW-620 colon

Row | Compound | GI50 (CCRF-CEM leukemia) | TGI (CCRF-CEM leukemia) [µM] | GI50 (COLO 205 colon) [µM] | TGI (COLO 205 colon) [µM] | GI50 (DU-145 prostate) [µM] | TGI (DU-145 prostate) [µM] | GI50 (HCC-2998 colon) | TGI (HCC-2998 colon) [µM] | GI50 (NCI-H460 lung) [µM] | TGI (NCI-H460 lung) [µM] | GI50 (OVCAR-4 ovarian) [µM] | TGI (OVCAR-4 ovarian) [µM] | GI50 (RPMI-8226 leukemia) | TGI (RPMI-8226 leukemia) [µM] | GI50 (SK-OV-3 ovarian) [µM] | TGI (SK-OV-3 ovarian) [µM] | GI50 (SNB-19 CNS) [µM] | TGI (SNB-19 CNS) [µM] | GI50 (SW-620 colon) | TGI (SW-620 colon) [µM]
1 | C[C@]12C3CC[C@@]4(CO)C[C@]3(CCC1[C@](C)(C(=O)O)CC[C@@H]2O)CC4=O (some centres undefined) | > 100 µM | > 100 | > 100 | > 100 | > 100 | > 100 | > 100 µM | > 100 | > 100 | > 100 | > 100 | > 100 | > 100 µM | > 100 | > 100 | > 100 | > 100 | > 100 | > 100 µM | > 100
2 | COc1cc(C2=NN(c3ccc(S(N)(=O)=O)cc3)C(c3ccc(Cl)cc3)C2)cc(OC)c1OC (centres undefined) | 4.81 µM | > 100 | 3.52 | 12.2 | 9.78 | > 100 | 6.93 µM | > 100 | 3.95 | > 100 | 3.16 | 9.46 | 3.7 µM | > 100 | 6.91 | > 100 | 5.48 | > 100 | 4.49 µM | > 100
3 | O=c1c2ccccc2nc(-c2ccccc2)n1O |  | > 100 |  | > 100 |  | > 100 |  | > 100 |  | > 100 |  | > 100 |  | > 100 |  | > 100 |  | > 100 |  | > 100
4 | Oc1c(I)cc(-c2nc3ccccc3s2)cc1CN(Cc1ccccn1)Cc1ccccn1 | 0.35 µM | > 100 | 0.352 | 20.7 | 0.616 | > 100 | 0.43 µM | 43.9 | 0.327 | 5.94 | 0.231 | 5.58 | 0.385 µM | 3.03 | 0.437 | > 100 | 0.387 | > 100 | 0.402 µM | 3.32
5 | COc1ccc(CC(NC(=O)[C@H](C)NC(=O)CN2CCOCC2)C(=O)N[C@@H](Cc2ccccc2)C(=O)[C@@]2(C)CO2)cc1 (some centres undefined) | 0.0859 µM | > 100 | 0.308 | 0.933 | 0.437 | 5.71 | 0.174 µM | 0.324 | 0.422 | 1.96 | 0.228 | 0.856 | 0.0565 µM | > 100 | 0.392 | 1.77 | 0.651 | > 100 | 0.216 µM | 0.734
6 | COc1cc2cc(Oc3ccc(NC(=O)Nc4ccc(Cl)c(C(F)(F)F)c4)cc3)c(C)nc2cc1OC | 1.01 µM | 3.09 | 0.66 | 1.31 | 1.24 | 5.11 | 1.77 µM | 5.48 | 1.07 | 3.57 | 1.37 | 6.1 | 0.635 µM | 1.65 | 1.35 | 5.79 | 1.41 | 5.31 | 1.25 µM | 4.57
7 | C[C@@H](Oc1ccc2[nH]nc(/C=C/c3cnn(CCO)c3)c2c1)c1c(Cl)cncc1Cl | 0.105 µM | 5 | 0.107 | 0.306 | 0.413 | > 43.6 | 1.43 µM | 5.21 | 0.0866 | 1.62 | 1.89 | 8.78 | 1.54 µM | 4.41 | 1.29 | 6.15 | 0.364 | 3.52 | 0.0574 µM | > 100
8 | CC(=O)/C=C/C1=C(c2cccs2)c2ccccc2CC1 | 25.3 µM | 54.2 | 23.1 | 49 | 42.8 | > 100 | 25.8 µM | 59.8 |  |  | 25.1 | 64.9 | 19.9 µM | 47.6 | 42 | > 100 |  |  | 33.9 µM | > 100
9 | COc1ccc(/C=C/C(=O)c2cc3c(N)c(C(=O)Nc4ccccc4C)sc3nc2C)cc1 | 0.475 µM | > 50 |  |  | 0.431 | > 23.4 | 1.09 µM | 3.61 | 1.53 | > 16.6 | 1.42 | > 50 | 1.4 µM | > 25.5 | 0.605 | > 50 | 1.15 | > 50 | 0.83 µM | > 50
10 | Cc1cc(C)cc(Nc2ccc([N+](=O)[O-])c(NCCN3CCOCC3)n2)c1 | 0.00392 µM and 0.0331 µM | > 100 | 0.0023 | 0.00795 |  | > 100 | 0.00435 µM and 0.0287 µM | > 100 |  | > 100 | 0.002 | > 100 | 0.00455 µM and 0.0366 µM | > 100 |  | > 100 |  |  | 0.00176 µM and 0.0147 µM | > 100
